# Results from paper PMC9743092, “Membrane-Active Cyclic Amphiphilic Peptides: Broad-Spectrum Antibacterial Activity Alone and in Combination with Antibiotics” (Journal of Medicinal Chemistry, 2022).
# Columns and labels:
# [1] = test system: P. aeruginosa (ATCC 27883); conditions: 24 h, ≥99.9% kill
# [2] = test system: K. pneumoniae (ATCC BAA 1705)
# [3] = test system: P. aeruginosa (ATCC 27853)
# [4] = test system: K. pneumoniae (ATCC 700603)
# [5] = test system: Acinetobacter baumannii-calcoaceticus species complex (1189854)
# [6] = test system: Acinetobacter baumannii-calcoaceticus species complex (1188767)
# in vitro = conditions: human, human plasma
# Experimental: For accurate quantification, we employed a mass spectrometer (Q-TOF LC/MS) with a high resolving power. To remove the background interference, the data were processed by using a narrower (±0.1 m/z) extracted ion chromatogram (EIC) window. The test peptide (100 μM) was incubated in human plasma at 37 °C in a water bath. […] Plasma proteins were precipitated by the addition of cold ethanol (200 μL) and incubated for 30 min at −20 °C. […] The samples were dissolved in water and analyzed on a Delta-Pak (Waters) C18 column (100 Å, 5 μm, 3.9 mm × 150 mm) at a flow rate of 0.3 mL/min using a linear gradient of aqueous acetonitrile in the presence of formic acid (FA; 0.1%, v/v) as an ion pair reagent. Peptides were detected by recording the absorbance at 220 nm and quantified by their peak areas of EIC. The percentage digestion of the test peptides was calculated relative to the peak areas at 0 min.
# E. coli (ATCC 25922) [7] = conditions: 24 h, ≥99.9% kill
# [8] = test system: Acinetobacter baumannii (NCTC 13304)
# [9] = test system: human red blood cells (hRBCs); conditions: red cells of human, 2 h
# Experimental: The hemolytic activity of all the cyclic peptides was determined using human red blood cells (hRBC) purchased from BioIVT, USA. […] Peptide-induced hemolysis was tested in triplicate by mixing 75 μL of the peptide solution in PBS (two-fold serial dilution) with 75 μL of a 4% (v/v) hRBC suspension in phosphate-buffered saline. The plates were incubated for 2 h at 37 °C without agitation and centrifuged at 1000g for 10 min. Aliquots (100 μL) of the supernatant were transferred to 96-well plates, where hemoglobin release was measured spectrophotometrically at 567 nm. Percent hemolysis was calculated by the following formula: [drawing 1] where A represents the absorbance of the peptide sample at 567 nm and A0 and At represent zero percent and 100% hemolysis determined in phosphate-buffered saline and 1% Triton X-100, respectively.
# E. coli (ATCC 25922) [10] = test system: E. coli (ATCC 25922)
# [11] = test system: K. pneumoniae (ATCC BAA-1705); conditions: 24 h, ≥99.9% kill
structure (smiles),measurement,setting,value
"N=C(N)NCCC[C@@H]1NC(=O)[C@H](CCCNC(=N)N)NC(=O)[C@H](CCCNC(=N)N)NC(=O)[C@H](Cc2c[nH]c3ccccc23)NC(=O)[C@H](Cc2c[nH]c3ccccc23)NC(=O)[C@H](Cc2c[nH]c3ccccc23)NC(=O)[C@H](Cc2c[nH]c3ccccc23)NC(=O)[C@H](CCCNC(=N)N)NC(=O)[C@H](CCCNC(=N)N)NC1=O [5a, [R5W4]]",MIC S. aureus (ATCC 29213),S. aureus (ATCC 29213),4 µg/mL
same,MBC P. aeruginosa (ATCC 27883),[1],32 µg/mL
same,MIC K. pneumoniae (ATCC BAA 1705),[2],>64 µg/mL
same,MIC P. aeruginosa (ATCC 27853),[3],32 µg/mL
same,MIC K. pneumoniae (1188718),K. pneumoniae (1188718),>64 µg/mL
same,MIC K. pneumoniae (ATCC 700603),[4],>64 µg/mL
same,MIC Acinetobacter baumannii-calcoaceticus species complex (1189854),[5],16 µg/mL
same,MIC Acinetobacter baumannii-calcoaceticus species complex (1188767),[6],32 µg/mL
same,"remaining at 0.5 h, 100 μM",in vitro,~79%
same,"remaining at 2 h, 100 μM",in vitro,~56%
same,MIC E. coli (ATCC BAA-2452),E. coli (ATCC BAA-2452),16 µg/mL
same,MBC E. coli (ATCC 25922),E. coli (ATCC 25922) [7],16 µg/mL
same,MIC P. aeruginosa (1188712),P. aeruginosa (1188712),16 µg/mL
same,MIC Acinetobacter baumannii (NCTC 13304),[8],16 µg/mL
same,MIC E. coli (1191008),E. coli (1191008),16 µg/mL
same,MIC P. aeruginosa (1191191),P. aeruginosa (1191191),32 µg/mL
same,MIC S. aureus (1195201),S. aureus (1195201),4 µg/mL
same,HC50,[9],340 µg/mL
same,MIC E. coli (ATCC 25922),E. coli (ATCC 25922) [10],16 µg/mL
same,MIC S. aureus (1193193),S. aureus (1193193),4 µg/mL
same,MBC K. pneumoniae (ATCC BAA-1705),[11],64 µg/mL
